Measured values published in article PMC9251361, “Effects of LPS Composition in Escherichia coli on Antibacterial Activity and Bacterial Uptake of Antisense Peptide-PNA Conjugates” (Frontiers in Microbiology, 2022).
≈ marks a conversion by molar mass, not a printed value. Like-named read-outs stand apart in the source and are kept apart here. Positions of bridges follow the written chain, without caps; N, C: chain ends. Non-standard residues stand in square brackets, D forms with d. Residues, ends and D or L forms follow the SMILES beside them. *: point of attachment. X1 = CC[C@H](C)CCCCC(=O)*; Dab = NCC[C@H](N)C(=O)O

What was measured:
[1] = system: E. coli ATCC25922 ΔrfaC (120 ΔrfaC); assay: MIC broth microdilution; format: cell-based, Escherichia coli; settings: for MIC values: Table 3, strain ATCC25922 ΔrfaC
Procedure: (§1) All strains used in this study are listed in Supplementary Table S1. E. coli strains WD101 and WD101ΔeptAΔarnD (WD101ΔΔ) were kindly provided by Professor M. Stephen Trent (University of Georgia, USA). E. coli strains DB wild type, DB L5, and DB L9 were kindly provided by Dr. Douglas Browning (University of Birmingham, UK). Single deletion strains for envelope mutants were obtained from the Keio-collection (Baba et al., [2006]). All strains were grown in non-cation adjusted Muller Hinton broth (MHB) (Sigma, Cat. No. 70192). BPP-PNA conjugates (Table 1) were obtained as described previously (Good et al., [2001]; Ghosal et al., [2013]; Hansen et al., [2016]).
(§2) Minimum inhibitory concentration (MIC) values were determined by broth microdilution according to standard protocols adapted to peptide-based antimicrobial compounds (Goltermann and Nielsen, [2020]). Briefly, 190 μl bacterial cell culture containing ≈10^5 cfu/ml was dispensed into a 96-well plate (Thermo Scientific, Nunc Cat. No. 260896, 96F straight w/lid) along with 10 μl PNA stock solution or antibiotic. The plate was incubated in a Tecan Genios plate reader at 37°C for 18 h, and OD was measured every 20 min at 595 nm. The MIC was determined as the lowest concentration, which inhibited visible growth (OD < 0.1) in the wells. […] Experiments were performed in triplicates as a minimum.

E. coli ATCC25922 = format: cell-based, Escherichia coli; settings: strain ATCC25922, MHB, 37°C, 18 h; for MIC values: Table 3
Procedure: as §1, §2

E. coli K12 MG1655 = assay: microbe, parasite or virus in culture; format: cell-based, Escherichia coli; settings: 37°C, 18 h; for MIC values: Table 3, strain MG1655
Procedure: as §1, §2

E. coli MG1655 ΔsbmA = assay: MIC broth microdilution; format: cell-based, Escherichia coli; settings: Table 3; strain MG1655 ΔsbmA; MHB, 37°C, 18 h
Procedure: as §1, §2

[2] = system: E. coli 121 ΔrfaE (ATCC25922 ΔrfaE); assay: MIC broth microdilution; format: cell-based, Escherichia coli; settings: Table 2; strain 121 ΔrfaE; MHB, 37°C, 18 h
Procedure: as §1, §2

E. coli AS19 = assay: MIC broth microdilution; format: cell-based, Escherichia coli; settings: Table 2; strain AS19; MHB, 37°C, 18 h
Procedure: as §1, §2

[3] = system: E. coli 122 ΔrfaF (ATCC25922 ΔrfaF); format: cell-based, Escherichia coli; settings: Table 2; strain 122 ΔrfaF; MHB, 37°C, 18 h
Procedure: as §1, §2

[4] = system: E. coli 123 ΔrfaG (ATCC25922 ΔrfaG); format: cell-based, Escherichia coli; settings: Table 2; strain 123 ΔrfaG; MHB, 37°C, 18 h
Procedure: as §1, §2

[5] = system: E. coli R2 core type (F632); format: cell-based, Escherichia coli; settings: Table 2; strain R2; MHB, 37°C, 18 h
Procedure: as §1, §2

[6] = system: E. coli R3 core type (F653); format: cell-based, Escherichia coli; settings: Table 2; strain R3; MHB, 37°C, 18 h
Procedure: as §1, §2

[7] = system: E. coli R4 core type (F2513); format: cell-based, Escherichia coli; settings: Table 2; strain R4; MHB, 37°C, 18 h
Procedure: as §1, §2

[8] = system: E. coli WD101 (polymyxin-resistant pmrA^C); format: cell-based, Escherichia coli; settings: Table 2; strain WD101; MHB, 37°C, 18 h
Procedure: as §1, §2

E. coli WD101ΔΔ = format: cell-based, Escherichia coli; settings: Table 2; strain WD101ΔΔ; MHB, 37°C, 18 h
Procedure: as §1, §2

[9] = system: E. coli inner core mutants (ΔrfaC, ΔrfaE, ΔrfaF, and ΔrfaG); assay: MIC broth microdilution, inner core mutants as a group; format: cell-based, Escherichia coli; settings: all the inner core mutants as well as AS19
Procedure: as §2
Four inner core mutants (ΔrfaC, ΔrfaE, ΔrfaF, and ΔrfaG) with increasingly shortened LPS core (Figure 2A) were investigated. The deletions span the three heptosyl and glycosyltransferases rfaC, rfaF, and rfaG responsible for attaching heptose and glucose, respectively, to the growing LPS core, and rfaE required for the synthesis of the heptose precursor needed for LPS synthesis (Figure 2A). […] Furthermore, all strains were characterized with respect to hydrophobicity and accessible cell surface charge (Figure 2B, vide infra). […] It is known that the peptide portion of the conjugates can have a membrane disruptive effect at high concentrations (Eriksson et al., [2002]). […]

[10] = HPLC analysis of BPP-PNA relative hydrophobicity; format: physicochemical; settings: chromatographic measure of hydrophobicity; RP18 column (150 ×3.9 mm DeltaPak, 5 μm); 0 to 40% buffer B (95% acetonitrile, 0.1% TFA) in 30 min; conjugates dissolved in water and mixed; recorded at 260 nm
Procedure: Hydrophobicity of the BPP-PNA conjugates was measured using reversed phase high-performance liquid chromatography (HPLC) on an RP18 column (150 ×3.9 mm DeltaPak, 5 μm; Waters Corporation, Milford, MA, USA). Briefly, all the BPP-PNA conjugates were dissolved in water and mixed. The mixture of BPP-PNA conjugates has been run on HPLC and recorded at 260 nm. The HPLC buffers used in this study are buffer A composed of 5% acetonitrile, 0.1% trifluoroacetic acid (TFA), and 95% H2O, and buffer B composed of 95% acetonitrile, 0.1% TFA, and 5% H2O; the gradient starts from 100% of buffer A, 0% of buffer B, and ends with 60% of buffer A, 40% of buffer B in 30 min. Hydrophobicity of the compound was directly correlated to the HPLC retention time of each conjugate.

[11] = system: E. coli R1 core type (F470); format: cell-based, Escherichia coli; settings: Table 2, strain R1* (48 h), MHB, 37°C
Procedure: as §1
as §2, with “The plate was incubated in a Tecan Genios plate reader at 37°C for 18 h, and OD was measured every 20 min at 595 nm.” left out

[12] = Table 2, strain K12 MG1655, MHB

## -Cys-VDKPPYLPRPRPPRRIYNR-NH2 (oncocin) [PNA4700, mm for PNA4124]
[1]; MHB, 37°C, 18 h, listed as 4700
  MIC values: 4 µM
E. coli ATCC25922; listed as 4700
  MIC values: >8 µM

## -Cys- RAGLQFPVGRVHRLLRK-NH2 (BF2A) [PNA4030, anti acpP PNA conjugated to buforin 2a (BF2A) via Cys]
E. coli K12 MG1655; MHB
  MIC values: 1 µM
[1]; MHB, 37°C, 18 h
  MIC values: <0.25 µM
E. coli MG1655 ΔsbmA
  MIC values: 8 to 16 µM
E. coli ATCC25922
  MIC values: 0.5 µM

## CCCCCCCCCCCCOS(=O)(=O)[O-].[Na+] [SDS, sodium dodecyl sulfate]
E. coli K12 MG1655; [12]
  Minimum inhibitory concentration, SDS: 0.12%
[2]
  Minimum inhibitory concentration, SDS: ≤ 0.03%
E. coli AS19
  Minimum inhibitory concentration, SDS: ≤ 0.03%
[1]; Table 2, strain 120 ΔrfaC, MHB, 37°C, 18 h
  Minimum inhibitory concentration, SDS: ≤ 0.03%
[3]
  Minimum inhibitory concentration, SDS: ≤ 0.03%
[4]
  Minimum inhibitory concentration, SDS: ≤ 0.03%
E. coli ATCC25922; Table 2
  Minimum inhibitory concentration, SDS: 0.12%
[5]
  Minimum inhibitory concentration, SDS: >0.5%
[6]
  Minimum inhibitory concentration, SDS: >0.5%
[7]
  Minimum inhibitory concentration, SDS: ≤ 0.06%
[8]
  Minimum inhibitory concentration, SDS: 0.12%
E. coli WD101ΔΔ
  Minimum inhibitory concentration, SDS: 0.12%
[9]
  MIC, SDS: < 0.03%

## H-CTCATACTCT-NH2 [PNA2301, unconjugated anti acpP PNA, H-…-NH2]
[10]
  HPLC retention time (RT): 14 min
E. coli K12 MG1655; Table 2, strain K12 MG1655, non-cation adjusted MHB, ≈10^5 cfu/ml, triplicates minimum
  Minimum inhibitory concentration: >32 µM
E. coli AS19
  Minimum inhibitory concentration: 2 µM
[3]
  Minimum inhibitory concentration: >4 µM
[4]
  Minimum inhibitory concentration: >16 µM
E. coli ATCC25922; Table 2
  Minimum inhibitory concentration: >16 µM
[6]
  Minimum inhibitory concentration: >16 µM
[7]
  Minimum inhibitory concentration: >16 µM

## CC[C@H](C)CCCCC(=O)N[C@@H](CCN)C(=O)N[C@H](C(=O)N[C@@H](CCN)C(=O)N[C@H]1CCNC(=O)[C@H]([C@@H](C)O)NC(=O)[C@H](CCN)NC(=O)[C@H](CCN)NC(=O)[C@H](CC(C)C)NC(=O)[C@@H](CC(C)C)NC(=O)[C@H](CCN)NC1=O)[C@@H](C)O [Colistin] (X1-[Dab]T[Dab][Dab][Dab][dL]L[Dab][Dab]T; lactam 4-C (inferred); N-terminus assumed)
E. coli K12 MG1655; [12]
  Minimum inhibitory concentration, Colistin: 0.03 µg/mL (≈ 0.0257 µM)
[3]
  Minimum inhibitory concentration, Colistin: 0.016 µg/mL (≈ 0.0137 µM)
[4]
  Minimum inhibitory concentration, Colistin: ≤ 0.016 µg/mL
E. coli ATCC25922; Table 2
  Minimum inhibitory concentration, Colistin: 0.06 µg/mL (≈ 0.0513 µM)
[5]
  Minimum inhibitory concentration, Colistin: 0.03 µg/mL (≈ 0.0257 µM)
[6]
  Minimum inhibitory concentration, Colistin: 0.06 µg/mL (≈ 0.0513 µM)
[7]
  Minimum inhibitory concentration, Colistin: 0.03 µg/mL (≈ 0.0257 µM)
[8]
  Minimum inhibitory concentration, Colistin: 4 µg/mL (≈ 3.42 µM)
E. coli WD101ΔΔ
  Minimum inhibitory concentration, Colistin: ≤ 0.016 µg/mL
[11]
  Minimum inhibitory concentration, Colistin: 0.016 µg/mL (≈ 0.0137 µM)

## -Cys-GKPRPYSPRPTSHPRPIRV-NH2 (Drosocin) [PNA4242, mm for PNA4128]
[1]; MHB, 37°C, 18 h, listed as 4242
  MIC values: <1 µM
E. coli ATCC25922; listed as 4242
  MIC values: >8 µM

## -Cys-RAGLQFPVGRVHRLLRK-R-X-R-NH2 (BF2A) [PNA4449, anti acpP PNA conjugated to BF2A extended by R-X-R]
E. coli K12 MG1655; MHB
  MIC values: <0.5 µM
[1]; MHB, 37°C, 18 h
  MIC values: <0.25 µM
E. coli MG1655 ΔsbmA
  MIC values: >4 µM
E. coli ATCC25922
  MIC values: 1 µM

## -Cys-GKPRPYSPRPTSHPRPIRV-NH2 (Drosocin) [PNA4128, anti acpP PNA conjugated to drosocin via Cys]
E. coli K12 MG1655; MHB
  MIC values: 0.5 to 1 µM
[1]; MHB, 37°C, 18 h, listed as 4128
  MIC values: <0.06 µM
[1]; ΔrfaC-mutant vs ATCC25922
  fold lower MIC in the ΔrfaC-mutant than the ATCC25922 control: more than 16 fold
E. coli MG1655 ΔsbmA
  MIC values: 4 to 8 µM
E. coli ATCC25922; listed as 4128
  MIC values: 1 µM

## -Cys-RAGLQFPVGRVHRLLRK-NH2 (BF2A) [PNA4243, mm for PNA4030]
[1]; MHB, 37°C, 18 h
  MIC values: <2 µM
E. coli ATCC25922
  MIC values: >8 µM

## -Cys-VDKPPYLPRPRPPRRIYNR-NH2 (oncocin) [PNA4124, anti acpP PNA conjugated to oncocin via Cys]
E. coli K12 MG1655; MHB
  MIC values: 8 µM
[1]; MHB, 37°C, 18 h, listed as 4124
  MIC values: 0.25 µM
E. coli MG1655 ΔsbmA
  MIC values: >8 µM
E. coli ATCC25922; listed as 4124
  MIC values: >2 µM

## -Cys-GKPRPYSPRPTSHPRPIRV-R-X-R-NH2 [PNA4448, anti acpP PNA conjugated to drosocin extended by R-X-R]
E. coli K12 MG1655; MHB
  MIC values: 1 to 2 µM
[1]; MHB, 37°C, 18 h
  MIC values: <0.12 µM
E. coli MG1655 ΔsbmA
  MIC values: 2 µM
E. coli ATCC25922
  MIC values: 2 µM
